According to patent publication US7166438B2, “In Vitro screening for ligands of the estrogen receptor” (priority 2001, dated 2007):
Read-outs that look alike come from different tables or passages of the source.

Tests used:
ER = test: Assay system I: transcriptional activation of an ER-dependent reporter gene; format: cell-based; conditions: in vitro
Method: The problem of the invention is achieved by a method of an in vitro screening for a test substance (ligand) involving selecting and detecting by means of at least two assay systems comprising the following steps: • (i) in a first cellular or tissue assay system selecting the ligand having transcriptional activity • which is mediated by activation of ER and which is measured by detecting potency in the cellular or tissue assay system comprising ER and an ER-driven reporter gene, • whereby, in the first assay system, the ligand activates the potency with an EC50(ER) (half-maximally effective ligand concentration) lower than or equal to 10 nmol/l, and • detecting the activation of the transcription; and • (ii) in a second cell-free or enzymatic assay system, selecting the physical-chemical interaction (recruitment) of SRC-1 and fragments thereof, and of the ER • which is measured by detecting the potency of this interaction in the cell-free or enzymatic system • wherein the ligand activates the ER and induces interaction with the co-present SRC-1 and fragments thereof in the second assay system with a EC50(ER+SRC) higher than or equal to 100 nmol/l, and detecting the potency of the physical-chemical interaction of SRC-1 and fragments thereof and of ER.
The assay employed in this Example only used compounds which are characterized by estrogenic activity. The assays for finding the estrogenic compounds have already been developed and published. These assays are standard assays well known to the person skilled in the art.
(§1) Using the assay described in Example 2, we selected the compound 3′ 15β-dihydrocycloprop[14,15]estra-1,3,5(10),8-tetraene-3,17α-diol [iii] for further examination of its neurotropic and systemic estrogenic effects.

ER and SRC-1 protein = test: Assay system II: SRC-1 recruitment by the activated ER (fluorescence resonance energy transfer, cell-free); format: biochemical; conditions: for Assay system II: First signs of significant interaction between ER and SRC-1 protein (dose in M): 175 ng his-tagged SRC-1 per well, significant = more than 2 times standard deviation from baseline; for Ratio between values measured in assay systems II and I: assay II dose / assay I EC50
Excerpt: Recruitment: Recruitment of SRC-1 relates to the comparison of the degrees of association by protein-protein interaction between co-present ER and SRC-1 in the absence or presence of an ER-agonist. Numerically, recruitment is defined by the molar concentration of ER-agonist which is required for the occurrence of a significant (more than 2 times standard deviation from baseline) protein-protein interaction between co-expressed ER and SRC-1 in a test system. The baseline is defined by the interaction measured in an identical test system to which no […] has been added.
The assay used in the present Example for investigating the recruitment of ER and co-activator SRC-1 is performed according to the publication of Gauchao ZHOH et al. (1998) Nuclear receptors have distinct affinities for co-activators: Characterization by fluorescence resonance energy transfer, Mol Endo, Vol 12, pp 1594–1604 especially on Page 1602. Furthermore, the assaysystem is described in WO/18124 from Cummings et al. Instead of the euriopium cryptate, mentioned in the International Application, europium chelate—100 ng of euriopium labeled anti-GST-antibody per well—is used in the assays. The labeled antibody was delivered from Wallac, now Perkin Elmer Lifesciences. (Eu-W1024 labeled anti-GST-Antibody for Lance Assays, Part Number AD 0065)
The SRC-1 is used at a concentration of 175 ng his-tagged SRC-1 per well. SRC-1 is present in every well of this assay system.

ERα = target: T1, ERα (Homo sapiens, UniProt P03372); test: Relative binding affinity to ERα; conditions: relative to 17β-estradiol
T1 sequence (P03372 1-595): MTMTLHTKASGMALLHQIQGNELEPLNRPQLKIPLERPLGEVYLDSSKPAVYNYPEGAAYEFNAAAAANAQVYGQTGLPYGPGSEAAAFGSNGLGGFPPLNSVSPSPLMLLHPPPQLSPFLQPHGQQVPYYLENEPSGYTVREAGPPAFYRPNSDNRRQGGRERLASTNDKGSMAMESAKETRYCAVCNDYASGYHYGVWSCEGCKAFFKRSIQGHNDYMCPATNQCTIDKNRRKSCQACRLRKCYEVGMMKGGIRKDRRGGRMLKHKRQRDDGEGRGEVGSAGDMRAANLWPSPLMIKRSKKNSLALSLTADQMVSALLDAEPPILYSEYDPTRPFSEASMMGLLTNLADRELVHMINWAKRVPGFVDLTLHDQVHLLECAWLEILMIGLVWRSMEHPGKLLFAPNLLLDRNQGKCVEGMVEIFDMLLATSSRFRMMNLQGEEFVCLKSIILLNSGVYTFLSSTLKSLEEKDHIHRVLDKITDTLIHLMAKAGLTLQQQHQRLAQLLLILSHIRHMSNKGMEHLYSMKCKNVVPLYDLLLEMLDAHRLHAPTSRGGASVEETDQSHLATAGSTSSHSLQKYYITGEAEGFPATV
Excerpt: as §1

ERβ = ERβ (Homo sapiens, UniProt Q92731); test: Relative binding affinity to ERβ; conditions: relative to 17β-estradiol
ERβ, sequence (Q92731 whole entry, species assumed): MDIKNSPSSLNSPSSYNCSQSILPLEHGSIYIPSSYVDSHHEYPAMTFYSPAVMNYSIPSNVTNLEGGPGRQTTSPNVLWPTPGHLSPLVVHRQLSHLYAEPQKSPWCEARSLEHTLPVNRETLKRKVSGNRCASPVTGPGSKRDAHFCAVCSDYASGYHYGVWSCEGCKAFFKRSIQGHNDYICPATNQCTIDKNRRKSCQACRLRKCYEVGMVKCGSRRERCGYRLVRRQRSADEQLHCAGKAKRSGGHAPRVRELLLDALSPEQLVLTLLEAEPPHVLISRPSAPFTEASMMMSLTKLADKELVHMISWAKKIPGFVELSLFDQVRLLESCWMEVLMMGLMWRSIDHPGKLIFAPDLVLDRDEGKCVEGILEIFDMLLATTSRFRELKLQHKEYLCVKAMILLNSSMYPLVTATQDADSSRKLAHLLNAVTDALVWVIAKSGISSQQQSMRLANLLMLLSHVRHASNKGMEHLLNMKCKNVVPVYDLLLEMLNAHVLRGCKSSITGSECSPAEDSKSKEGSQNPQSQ
Excerpt: as §1

[1] = test system: peripheral estrogen-target organs (uterus, thymus, adrenal glands); test: Morphometric assessment of estrogen-sensitive organs in ovariectomized female rats; format: in vivo, rat; conditions: subcutaneous
Method: (§2) Different doses of the compound of interest and the reference 17β-estradiol were administered subcutaneously in ovariectomized female rats for seven consecutive days. The effect of the compounds on the cognitive performance of experimental animals was evaluated by monitoring the acquisition, consolidation and retrieval of active avoidance behavior. Upon sacrifice, morphometric assessment was made of estrogen-sensitive organs (uterus, thymus, adrenal glands). Neurochemical effects were assessed by quantification of the transcription of ER-induced CNS-specific genes in different brain areas, endowed with different amounts of SRC-1.

bcl-2 = test: Transcription of estrogen-regulated gene bcl-2 in cerebral cortex of ovariectomized female rats; format: in vivo, rat; conditions: subcutaneous, seven days, equal dose comparison with 17β-estradiol
Method: as §2

oxytocin receptors = test: Estrogen-dependent expression of oxytocin receptors in ventromedial nucleus of ovariectomized female rats; format: in vivo, rat; conditions: subcutaneous, seven days, compared with 17β-estradiol
Method: as §2

[2] = test system: ovariectomized female rats; test: Active avoidance behavior (cognitive performance) in ovariectomized female rats; format: in vivo, rat; conditions: subcutaneous, seven days, compared with 17β-estradiol
Method: as §2

[3] = read-out: Assay system I: Transcriptional activation of an ER-dependent reporter gene (EC50 in M) (converted)

Structure (SMILES): CCCC1CC(O)C2(C)CCC3c4ccc(O)cc4CCC3C12 (stereo not drawn) [[v], 15β-propyl-estra-1,3,5,(10)-triene-3,17β-diol]
- EC50 (ER; [3]): 10 nM
- Assay system II: First signs of significant interaction between ER and SRC-1 protein (dose in M) (ER and SRC-1 protein): 10^−7 M
- Ratio between values measured in assay systems II and I (ER and SRC-1 protein): 10.0

Structure (SMILES): C=CCC1CC(O)C2(C)CCC3c4ccc(O)cc4CCC3C12 (stereo not drawn) [[iv], 15β-allyl-estra-1,3,5,(10)-triene-3,17β-diol]
- EC50 (ER; [3]): 4 nM
- Assay system II: First signs of significant interaction between ER and SRC-1 protein (dose in M) (ER and SRC-1 protein): 10^−7 M
- Ratio between values measured in assay systems II and I (ER and SRC-1 protein): 25.0

Structure (SMILES): CC12CCC3=C(CCc4cc(O)ccc43)C13CC3CC2O (stereo not drawn) [[iii], 3′,15β-dihydrocycloprop[14,15]-estra-1,3,5(10),8-tetraene-3,17α-diol]
- EC50 (ER; [3]): 1 nM
- Assay system II: First signs of significant interaction between ER and SRC-1 protein (dose in M) (ER and SRC-1 protein): 10^−7 M
- Ratio between values measured in assay systems II and I (ER and SRC-1 protein): 100.0
- relative affinity to ERα, of that of 17β-estradiol (ERα): 25–30 per cent
- relative affinity to ERβ, of that of 17β-estradiol (ERβ): 25–30 per cent
- capacity to induce estrogen-like effects in peripheral estrogen-target organs (uterus, thymus, adrenal glands) ([1]; seven consecutive days, compared with 17β-estradiol): several times lower than that of the natural estrogen 17β-estradiol
- estrogen-dependent changes in peripheral estrogen-sensitive organs at behaviorally effective treatment ([1]; seven days): not associated with estrogen-dependent changes in peripheral estrogen-sensitive organs
- stimulation of transcription of antiapoptotic estrogen-regulated gene bcl-2 in the cerebral cortex (bcl-2): to a higher degree than does 17β-estradiol given at an equal dose
- induction of estrogen-dependent expression of oxytocin receptors in the ventromedial nucleus (VMN) (oxytocin receptors): to a significantly lower degree than 17β-estradiol
- behavioral (cognitive) effect, retention of newly acquired active avoidance behavior [2]: indistinguishable from that of 17β-estradiol
